Key:
Format in all cases: in vivo
Aphis craccivora = assay: B.1 Cowpea aphid spray test on potted cowpea plants; conditions: for mortality at 500 ppm: population reduction assessed after 24, 72 and 120 hours, read-out: mortality in comparison with untreated controls; for mortality at 0.3 ppm: read-out: % mortality in comparison to untreated controls
Description: If not otherwise specified the test solutions were prepared as follows:
The active compound was dissolved at the desired concentration in a mixture of 1:1 (vol:vol) distilled water:aceton. The test solution was prepared at the day of use and in general at concentrations of ppm (wt/vol).
B.1 Cowpea Aphid (Aphis craccivora)
Potted cowpea plants colonized with 100-150 aphids of various stages were sprayed after the pest population had been recorded. Population reduction was assessed after 24, 72, and 120 hours.

Megoura viciae = assay: B.4 Vetch aphid bean leaf disk microtiter test; conditions: foliar, 144 h, 6 days, read-out: mortality in comparison with untreated controls
Description: B.4 Vetch Aphid (Megoura viciae)
The active compounds were formulated in 3:1 (vol:vol) water:DMSO with different concentrations of formulated compounds.
Bean leaf disks were placed into microtiterplates filled with 0.8% agar-agar and 2.5 ppm OPUS™. The leaf disks were sprayed with 2.5 μl of the test solution and 5 to 8 adult aphids were placed into the microtiter plates which were then closed and kept at 23±1° C. and 50±5% relative humidity under fluorescent light for 6 days. Mortality was assessed on the basis of vital, reproduced aphids. Aphid mortality and fecundity was then visually assessed.

Myzus persicae = assay: B.5 Green peach aphid spray test on bell pepper plants; conditions: for mortality at 10 ppm: 120 h, after 5 days, read-out: mortality in comparison with untreated controls; for mortality at 0.1 ppm: read-out: % mortality in comparison to untreated controls
Description: B.5 Green Peach Aphid (Myzus persicae)
(§1) The active compounds were formulated in cyclohexanone as a 10,000 ppm solution supplied in 1.3 ml ABgene® tubes. These tubes were inserted into an automated electrostatic sprayer equipped with an atomizing nozzle and they served as stock solutions for which lower dilutions were made in 1:1 (vol:vol) water:aceton. A nonionic surfactant (Kinetic®) was included in the solution at a volume of 0.01% (v/v).
Bell pepper plants at the first true-leaf stage were infested prior to treatment by placing heavily infested leaves from the main colony on top of the treatment plants. Aphids were allowed to transfer overnight to accomplish an infestation of 30-50 aphids per plant and the host leaves were removed. The infested plants were then sprayed by an automated electrostatic plant sprayer equipped with an atomizing spray nozzle. The plants were dried in the sprayer fume hood, removed, and then maintained in a growth room under fluorescent lighting in a 24 hour photoperiod at 25° C. and 20-40% relative humidity. Aphid mortality on the treated plants, relative to mortality on untreated control plants, was determined after 5 days.

Aphis gossypii = assay: B.2 Cotton aphid, mixed life stages, spray test on cotton plants; conditions: for mortality at 10 ppm: 120 h, after 5 days, read-out: mortality in comparison with untreated controls; for mortality at 0.1 ppm / mortality at 3 ppm: read-out: % mortality in comparison to untreated controls
Description: B.2 Cotton Aphid (Aphis gossypii, Mixed Life Stages)
as §1
Cotton plants at the cotyledon stage were infested with aphids prior to treatment by placing a heavily infested leaf from the main aphid colony on top of each cotyledon. Aphids were allowed to transfer overnight to accomplish an infestation of 80-100 aphids per plant and the host leaf was removed. The infested plants were then sprayed by an automated electrostatic plant sprayer equipped with an atomizing spray nozzle. The plants were dried in the sprayer fume hood, removed from the sprayer, and then maintained in a growth room under fluorescent lighting in a 24-hr photoperiod at 25° C. and 20-40% relative humidity. Aphid mortality on the treated plants, relative to mortality on untreated control plants, was determined after 5 days.

Bemisia argentifolii = assay: B.3 Silverleaf whitefly, adult, spray test on cotton plants; conditions: for mortality at 1 ppm / mortality at 3 ppm / mortality at 100 ppm: read-out: % mortality in comparison to untreated controls; for mortality at 10 ppm: 72 h, 3 days after treatment, read-out: mortality in comparison with untreated controls
Description: B.3 Silverleaf Whitefly (Bemisia argentifolii, Adult)
as §1
Cotton plants at the cotyledon stage (one plant per pot) were sprayed by an automated electrostatic plant sprayer equipped with an atomizing spray nozzle. The plants were dried in the sprayer fume hood and then removed from the sprayer. Each pot was placed into a plastic cup and 10 to 12 whitefly adults (approximately 3-5 days old) were introduced. The insects were collected using an aspirator and 0.6 cm, nontoxic Tygon® tubing (R-3603) connected to a barrier pipette tip. The tip, containing the collected insects, was then gently inserted into the soil containing the treated plant, allowing insects to crawl out of the tip to reach the foliage for feeding. Cups were covered with a reusable screened lid (150-micron mesh polyester screen PeCap from Tetko, Inc.). Test plants were maintained in a growth room at 25° C. and 20-40% relative humidity for 3 days, avoiding direct exposure to fluorescent light (24 hour photoperiod) to prevent trapping of heat inside the cup. Mortality was assessed 3 days after treatment, compared to untreated control plants.

Dichromothrips corbetti = assay: B.8 Orchid thrips petal dip test; conditions: 72 h, after 72 hours, read-out: mortality in comparison with untreated controls
Description: B.8 Orchid Thrips (Dichromothrips corbetti)
The active compounds were formulated as a 1:1 (vol:vol) water:aceton solution. Surfactant (Alkamuls EL 620) was added at the rate of 0.1% (vol/vol). Vanda orchids petals were cleaned, washed and air dried prior to spraying. Petals were dipped into the test solution for 3 seconds, air dried, placed inside a resealable plastic and inoculated with 20 adults. The treated petals were kept inside the holding room at 28-29° C. and relative humidity of 50-60%. Percent mortality was recorded after 72 hours.

Anthonomus grandis = assay: B.6 Boll weevil insect diet microtiter test; conditions: 120 h, egg and larval mortality, 5 days, read-out: mortality in comparison with untreated controls
Description: B.6 Boll Weevil (Anthonomus grandis)
The compounds were formulated in 3:1 (vol:vol) water:DMSO.
For evaluating control of boll weevil (Anthonomus grandis) the test unit consisted of 24-well-microtiter plates containing an insect diet and 20-30 A. grandis eggs. Different concentrations of formulated compounds were sprayed onto the insect diet at 20 μl, using a custom built micro atomizer, at two replications. After application, the microtiter plates were incubated at 23±1° C. and 50±5% relative humidity for 5 days. Egg and larval mortality was then visually assessed.

Plutella xylostella = assay: B.10 Diamondback moth cabbage leaf disk dip test; conditions: 500 ppm; 72 h
Description: B.10 Diamondback Moth (Plutella xylostella)
The active compounds were formulated in 1:1 (vol:vol) water:aceton and 0.1% (vol/vol) Alkamuls EL 620 surfactant. A 6 cm leaf disk of cabbage leaves was dipped in the test solution for 3 seconds and allowed to air dry in a Petri plate lined with moist filter paper. The leaf disk was inoculated with 10 third instar larvae and kept at 25-27° C. and 50-60% humidity for 3 days. Mortality was assessed after 72 h of treatment.

Nephotettix virescens = assay: B.9 Rice green leafhopper spray test on rice seedlings; conditions: 72 h, after 72 hours, read-out: mortality in comparison with untreated controls
Description: B.9 Rice Green Leafhopper (Nephotettix virescens)
Rice seedlings were cleaned and washed 24 hours before spraying. The active compounds were formulated in 1:1 (vol:vol) water:aceton, and 0.1% vol/vol surfactant (EL 620) was added. Potted rice seedlings were sprayed with 5 ml test solution, air dried, placed in cages and inoculated with 10 adults. Treated rice plants were kept at 28-29° C. and relative humidity of 50-60%. Percent mortality was recorded after 72 hours.

Row | SMILES | mortality at 500 ppm (Aphis craccivora) [%] | mortality at 2500 ppm (Megoura viciae) [%] | mortality at 10 ppm (Myzus persicae) [%] | mortality at 10 ppm (Aphis gossypii) [%] | mortality at 1 ppm (Bemisia argentifolii) [%] | mortality at 10 ppm (Bemisia argentifolii) [%] | mortality at 0.3 ppm (Aphis craccivora) [%] | other results
1 | Cc1c(C(=O)Nc2ccnnc2)cnn1C(C(F)(F)F)C(F)(F)F [I-34, 5-methyl-1-(2,2,2-trifluoro-1-trifluoromethyl-ethyl)-1H-pyrazole-4-carboxylic acid pyridazin-4-ylamide] | ≥ 75 | ≥ 75 | ≥ 75 |  |  |  |  | 
2 | CCN(C(=O)c1cnn(C(C)C(F)F)c1C)c1ccnnc1 (centres unmarked) [I-201] | ≥ 75 |  | ≥ 75 | ≥ 75 | 100 | ≥ 75 |  | mortality at 500 ppm (Dichromothrips corbetti): ≥ 75%
3 | CCN(C(=O)c1cnn(C(C)C(C)C)c1C)c1ccnnc1 (centres unmarked) [I-98] | ≥ 75 | ≥ 75 | ≥ 75 | ≥ 75 |  | ≥ 75 | 75 | mortality at 0.1 ppm (Aphis gossypii): 95%; mortality at 3 ppm (Bemisia argentifolii): 75%; mortality at 0.1 ppm (Myzus persicae): 95%; mortality at 2500 ppm (Anthonomus grandis): ≥ 75%; feeding damage (FD) (Plutella xylostella): 25%
4 | CCN(C(=O)c1cnn(C(C)C2(C#N)CC2)c1C)c1ccnnc1 (centres unmarked) [I-198] | ≥ 75 |  | ≥ 75 | ≥ 75 | 100 | ≥ 75 |  | mortality at 500 ppm (Dichromothrips corbetti): ≥ 75%
5 | CCN(C(=O)c1cnn(CC(C)C)c1C)c1ccnnc1 [#175 in WO10/034737, reference compound] |  |  |  |  |  |  | 0 | mortality at 0.1 ppm (Aphis gossypii): 0%; mortality at 0.1 ppm (Myzus persicae): 0%
6 | CCn1ncc(C(=O)N(C)c2cccnc2)c1C [#180 in WO09/0027393, reference compound] |  |  |  |  |  |  |  | mortality at 100 ppm (Bemisia argentifolii): 0%
7 | Cc1c(C(=O)Nc2ccnnc2)cnn1C(C)C [#5 of Table 14 in WO10/034737, reference compound] |  |  |  |  | 0 |  |  | mortality at 500 ppm (Nephotettix virescens): 0%
8 | Cc1c(C(=O)Nc2ccnnc2)cnn1C(C)(C)C#N [I-32] | ≥ 75 | ≥ 75 | ≥ 75 | ≥ 75 | 100 | ≥ 75 | 100 | mortality at 3 ppm (Aphis gossypii): 90%; mortality at 500 ppm (Nephotettix virescens): ≥ 75%
9 | Cc1c(C(=O)N(C)c2ccnnc2)cnn1C(C(F)(F)F)C(F)(F)F [I-38, N,5-dimethyl-N-pyridazin-4-yl-1-[2,2,2-trifluoro-1-(trifluoromethyl)ethyl]pyrazole-4-carboxamide] | ≥ 75 | ≥ 75 | ≥ 75 | ≥ 75 |  |  |  | 
10 | Cc1c(C(=O)N(C)c2cccnc2)cnn1CC(F)(F)F [#173 in WO09/027393, reference compound] |  |  | 50 |  |  | 25 |  | 
11 | CCN(C(=O)c1cnn(C(C)C)c1C)c1ccnnc1 [#5 of Table 98 in WO10/034737, reference compound] |  |  |  |  | 0 |  |  | mortality at 3 ppm (Bemisia argentifolii): 0%; mortality at 500 ppm (Dichromothrips corbetti): 0%; feeding damage (FD) (Plutella xylostella): 100%
12 | Cc1c(C(=O)Nc2ccnnc2)cnn1C(C)(C)C [#7 of Table 14 in WO10/034737, reference compound] |  |  |  |  |  |  | 0 | mortality at 3 ppm (Aphis gossypii): 25%
13 | Cc1c(C(=O)N(C)c2cccnc2)cnn1C(C)C(F)(F)F (centres unmarked) [I-377] | ≥ 75 | ≥ 75 |  | ≥ 75 |  | ≥ 75 |  | mortality at 100 ppm (Bemisia argentifolii): 100%; mortality at 2500 ppm (Anthonomus grandis): ≥ 75%

From US9198422B2, “Pesticidal pyrazole compounds” (BASF SE, priority 2011, dated 2015)
